Reference: PubChem BioAssay AID248 (DTP/NCI, 2004)
Inconclusive results and toxic doses are left out. No stated cut-off is given here; in the data, active means T/C of 150% or more; inactive means T/C below 125%.

Test system: L1210 leukemia ip in BDF1 mice, survival T/C
Assay: NCI In Vivo Anticancer Drug Screen. Data for tumor model L1210 Leukemia (intraperitoneal) in B6D2F1 (BDF1) mice
Conditions: endpoint: mean survival time, higher = longer survival
How it was run: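 Transplanted-tumor mice were given test agent; controls received vehicle only. Survival readings from the two groups were divided (treated over control).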

[1] = dose: 100.0 mg/kg/injection, schedule: Q04DX003 (ip), vehicle: Klucel (hydroxypropylcellulose) (HPC)
[2] = dose: 200.0 mg/kg/injection, schedule: Q04DX003 (ip), vehicle: Klucel (hydroxypropylcellulose) (HPC)
[3] = dose: 400.0 mg/kg/injection, schedule: Q04DX003 (ip), vehicle: Klucel (hydroxypropylcellulose) (HPC)
[4] = dose: 100.0 mg/kg/injection, schedule: Q01DX001 (ip), vehicle: carboxymethylcellulose (CMC)
[5] = dose: 200.0 mg/kg/injection, schedule: Q01DX001 (ip), vehicle: carboxymethylcellulose (CMC)

Measured: T/C

NC(=O)C(=O)NCCCN1CC1
inactive: dose: 12.5 mg/kg/injection, schedule: Q04DX003 (ip), vehicle: Klucel (hydroxypropylcellulose) (HPC) 102 % of control | dose: 25.0 mg/kg/injection, schedule: Q04DX003 (ip), vehicle: Klucel (hydroxypropylcellulose) (HPC) 98 % of control | dose: 50.0 mg/kg/injection, schedule: Q04DX003 (ip), vehicle: Klucel (hydroxypropylcellulose) (HPC) 106 % of control | [1] 118 % of control

COc1c(F)c(F)c(Oc2c(F)c(F)c(OC)c(F)c2F)c(F)c1F
inactive: dose: 100.0 mg/kg/injection, schedule: Q01DX001 (ip), vehicle: Klucel (hydroxypropylcellulose) (HPC) 99 % of control | dose: 200.0 mg/kg/injection, schedule: Q01DX001 (ip), vehicle: Klucel (hydroxypropylcellulose) (HPC) 92 % of control | dose: 400.0 mg/kg/injection, schedule: Q01DX001 (ip), vehicle: Klucel (hydroxypropylcellulose) (HPC) 94 % of control

CCCCCCCCCCCCCCCCCCCCCCOC(=O)CCC(=O)OCCCCCCCCCCCCCCCCCCCCCC
inactive: dose: 100.0 mg/kg/injection, schedule: Q01DX009 (ip), vehicle: gum acacia 86 % of control | dose: 100.0 mg/kg/injection, schedule: Q04DX003 (ip), vehicle: gum acacia 95 % of control | dose: 200.0 mg/kg/injection, schedule: Q01DX009 (ip), vehicle: gum acacia 86 % of control | dose: 200.0 mg/kg/injection, schedule: Q04DX003 (ip), vehicle: gum acacia 92 % of control | dose: 400.0 mg/kg/injection, schedule: Q04DX003 (ip), vehicle: gum acacia 92 % of control

ClCc1nc2ccccc2[nH]1
inactive: dose: 50.0 mg/kg/injection, schedule: Q01DX001 (ip), vehicle: saline 101 % of control | dose: 100.0 mg/kg/injection, schedule: Q01DX001 (ip), vehicle: saline 101 % of control | [1] 105 % of control | dose: 200.0 mg/kg/injection, schedule: Q01DX001 (ip), vehicle: saline 104 % of control | [2] 102 % of control | dose: 400.0 mg/kg/injection, schedule: Q01DX001 (ip), vehicle: saline 110 % of control | [3] 98 % of control

O=C(O)c1ccc(NCc2cccc(N=Cc3ccccc3)c2)cc1
inactive: dose: 100.0 mg/kg/injection, schedule: Q01DX001 (ip), vehicle: saline with Tween-80 93 % of control | dose: 200.0 mg/kg/injection, schedule: Q01DX001 (ip), vehicle: saline with Tween-80 93 % of control | dose: 400.0 mg/kg/injection, schedule: Q01DX001 (ip), vehicle: saline with Tween-80 103 % of control

NC(=O)NNC(O)(C(F)(F)F)C(F)(F)F
inactive: [4] 103 % of control | [5] 108 % of control

N#CC(c1ccccc1)N1CCCCC1 (stereo not given)
inactive: [1] 101 % of control | [2] 107 % of control | [3] 91 % of control

NC(=S)N1N=C(c2ccccc2)CC1=O
inactive: dose: 75.0 mg/kg/injection, schedule: Q01DX001 (ip), vehicle: carboxymethylcellulose (CMC) 107 % of control | dose: 150.0 mg/kg/injection, schedule: Q01DX001 (ip), vehicle: carboxymethylcellulose (CMC) 96 % of control | dose: 300.0 mg/kg/injection, schedule: Q01DX001 (ip), vehicle: carboxymethylcellulose (CMC) 96 % of control

CN(C)c1c(-c2ccccc2)cc(-c2ccccc2)[nH]c1=O
inactive: [4] 95 % of control | [5] 95 % of control | dose: 400.0 mg/kg/injection, schedule: Q01DX001 (ip), vehicle: carboxymethylcellulose (CMC) 88 % of control

CCOC(=O)c1ccc(NC(=O)Oc2ccc(Cl)cc2C)cc1
inactive: dose: 100.0 mg/kg/injection, schedule: Q01DX009 (ip), vehicle: Klucel (hydroxypropylcellulose) (HPC) 101 % of control | dose: 200.0 mg/kg/injection, schedule: Q01DX009 (ip), vehicle: Klucel (hydroxypropylcellulose) (HPC) 92 % of control | dose: 400.0 mg/kg/injection, schedule: Q01DX009 (ip), vehicle: Klucel (hydroxypropylcellulose) (HPC) 95 % of control

O=C(O)C(Oc1ccccc1)Oc1ccccc1
inactive: dose: 50.0 mg/kg/injection, schedule: Q01DX001 (ip), vehicle: alkali diluted with saline 100 % of control | dose: 100.0 mg/kg/injection, schedule: Q01DX001 (ip), vehicle: alkali diluted with saline 96 % of control | dose: 200.0 mg/kg/injection, schedule: Q01DX001 (ip), vehicle: alkali diluted with saline 100 % of control | dose: 400.0 mg/kg/injection, schedule: Q01DX001 (ip), vehicle: alkali diluted with saline 96 % of control
